{"source": "patent US10966430B2", "about": "“Natural fungicide composition” (GRIFFITH FOODS INTERNATIONAL INC., priority 2013, dated 2021)", "system": "Mycosphaerella fijiensis", "assay": "Second field trials: in vitro fungicidal activity, length of germinated ascospores on water-agar", "format": "cell-based", "details": "for % Inhibition: ascospores incubated 48 hours at 26° C. in darkness", "procedure": "Additional field trials were conducted to evaluate the in vitro fungicidal activity of 14 composition embodiments in the treatment of Mycosphaerella fijiensis.\nCulture media comprising 2% water-agar (Difco® Bacto® Agar) and 0.001, 0.01, 0.1, 1, 10, 100, and 1,000 mg/L of the active substance were each prepared in a petri dish for each composition. A separate culture media without any active substance was used as a control. For comparative fungicides F-11-01 to F-11-12 listed in Table 1 below, the active substance was the same as the composition as a whole.\nAscospores of Mycosphaerella fijiensis obtained from a banana plantation that had not been treated with any fungicides were discharged into each petri dish. After discharging the ascospores of Mycosphaerella fijiensis, each sample was incubated for 48 hours at 26° C. in complete darkness. After 48 hours of incubation, the length of 100 germinated ascospores at each concentration was measured.\nAfter collecting the data, the average length of the germinated ascospores was calculated for each concentration. The average inhibition percentage was calculated for each sample fungicide at each concentration using the following formula:\nwhere: • Lcontrol=average length of germinated ascospores of control sample • Lsample=average length of germinated ascospores of sample fungicide.\nThe average inhibition percentage was used to calculate EC50 for each sample fungicide. EC50 is the half maximal effective concentration, which refers to the concentration of sample fungicide that induces a response halfway between the baseline and maximum after a specified exposure time."}
{"substance": "Polysorbate 80 [Fungicide F-11-09]", "values": [{"measurement": "% Inhibition", "setting": "0.001 mg/L", "value": 37.98, "unit": "%"}, {"measurement": "% Inhibition", "setting": "0.01 mg/L", "value": 42.6, "unit": "%"}, {"measurement": "% Inhibition", "setting": "0.1 mg/L", "value": 11.91, "unit": "%"}, {"measurement": "% Inhibition", "setting": "1 mg/L", "value": 31.87, "unit": "%"}, {"measurement": "% Inhibition", "setting": "10 mg/L", "value": 52.04, "unit": "%"}, {"measurement": "% Inhibition", "setting": "100 mg/L", "value": 46.24, "unit": "%"}, {"measurement": "Natural Log", "setting": "natural log belonging to the EC50 column", "value": 10.45}]}
